Results from PubChem BioAssay (NCI).
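The compound was tested at five concentrations on cells cultured in 96-well plates, with a 48-hour exposure period. TGI marks complete inhibition of growth.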

Legend:
Assay in all cases: DTP human tumour cell line panel, 48 h
786-0 renal = system: 786-0 renal
A549 NSCLC = system: A549 NSCLC
ACHN renal = system: ACHN renal
CAKI-1 renal = system: CAKI-1 renal
CCRF-CEM leukemia = system: CCRF-CEM leukemia
COLO 205 colon = system: COLO 205 colon
DLD-1 colon = system: DLD-1 colon
DMS 273 small cell lung = system: DMS 273 small cell lung
EKVX NSCLC = system: EKVX NSCLC
HCC-2998 colon = system: HCC-2998 colon
HCT-116 colon = system: HCT-116 colon
HCT-15 colon = system: HCT-15 colon
HL-60(TB) leukemia = system: HL-60(TB) leukemia
HOP-62 NSCLC = system: HOP-62 NSCLC
HT29 colon = system: HT29 colon
IGROV1 ovarian = system: IGROV1 ovarian
K-562 leukemia = system: K-562 leukemia
KM12 colon = system: KM12 colon
KM20L2 colon = system: KM20L2 colon
LOX IMVI melanoma = system: LOX IMVI melanoma
LXFL 529 NSCLC = system: LXFL 529 NSCLC
M14 melanoma = system: M14 melanoma
M19-MEL melanoma = system: M19-MEL melanoma
MALME-3M melanoma = system: MALME-3M melanoma
MOLT-4 leukemia = system: MOLT-4 leukemia
NCI-H23 lung = system: NCI-H23 lung
NCI-H460 lung = system: NCI-H460 lung
NCI-H522 lung = system: NCI-H522 lung
OVCAR-3 ovarian = system: OVCAR-3 ovarian
OVCAR-4 ovarian = system: OVCAR-4 ovarian
OVCAR-5 ovarian = system: OVCAR-5 ovarian
OVCAR-8 ovarian = system: OVCAR-8 ovarian
RPMI-8226 leukemia = system: RPMI-8226 leukemia
RXF 393 renal = system: RXF 393 renal
SF-268 CNS = system: SF-268 CNS
SF-295 CNS = system: SF-295 CNS
SK-MEL-2 melanoma = system: SK-MEL-2 melanoma
SK-MEL-28 melanoma = system: SK-MEL-28 melanoma
SK-MEL-5 melanoma = system: SK-MEL-5 melanoma
SK-OV-3 ovarian = system: SK-OV-3 ovarian
SN12C renal = system: SN12C renal
SNB-19 CNS = system: SNB-19 CNS
SNB-75 CNS = system: SNB-75 CNS
SR leukemia = system: SR leukemia
SW-620 colon = system: SW-620 colon
TK-10 renal = system: TK-10 renal
U251 CNS = system: U251 CNS
UACC-257 melanoma = system: UACC-257 melanoma
UACC-62 melanoma = system: UACC-62 melanoma
UO-31 renal = system: UO-31 renal
XF 498 CNS = system: XF 498 CNS

## CC1OC(OP(=O)(OCc2ccccc2)OCc2ccccc2)C(OC(=O)c2ccccc2)C(OC(=O)c2ccccc2)C1I (stereo unspecified)
786-0 renal
  TGI: > 100 µM
A549 NSCLC
  TGI: > 100 µM
ACHN renal
  TGI: > 100 µM
CAKI-1 renal
  TGI: > 100 µM
CCRF-CEM leukemia
  TGI: > 100 µM
COLO 205 colon
  TGI: 84.8 µM
DLD-1 colon
  TGI: > 100 µM
DMS 273 small cell lung
  TGI: > 100 µM
EKVX NSCLC
  TGI: > 100 µM
HCC-2998 colon
  TGI: > 100 µM
HCT-116 colon
  TGI: > 100 µM
HCT-15 colon
  TGI: > 100 µM
HL-60(TB) leukemia
  TGI: 49.4 µM
HOP-62 NSCLC
  TGI: > 100 µM
HT29 colon
  TGI: > 100 µM
IGROV1 ovarian
  TGI: > 100 µM
K-562 leukemia
  TGI: > 100 µM
KM12 colon
  TGI: > 100 µM
KM20L2 colon
  TGI: > 100 µM
LOX IMVI melanoma
  TGI: > 100 µM
LXFL 529 NSCLC
  TGI: > 100 µM
M14 melanoma
  TGI: > 100 µM
M19-MEL melanoma
  TGI: > 100 µM
MALME-3M melanoma
  TGI: > 100 µM
MOLT-4 leukemia
  TGI: 59.1 µM
NCI-H23 lung
  TGI: > 100 µM
NCI-H460 lung
  TGI: > 100 µM
NCI-H522 lung
  TGI: 88.2 µM
OVCAR-3 ovarian
  TGI: > 100 µM
OVCAR-4 ovarian
  TGI: > 100 µM
OVCAR-5 ovarian
  TGI: > 100 µM
OVCAR-8 ovarian
  TGI: > 100 µM
RPMI-8226 leukemia
  TGI: 97.8 µM
RXF 393 renal
  TGI: 76.9 µM
SF-268 CNS
  TGI: > 100 µM
SF-295 CNS
  TGI: > 100 µM
SK-MEL-2 melanoma
  TGI: > 100 µM
SK-MEL-28 melanoma
  TGI: > 100 µM
SK-MEL-5 melanoma
  TGI: > 100 µM
SK-OV-3 ovarian
  TGI: > 100 µM
SN12C renal
  TGI: 52.5 µM
SNB-19 CNS
  TGI: > 100 µM
SNB-75 CNS
  TGI: 68.1 µM
SR leukemia
  TGI: 80.7 µM
SW-620 colon
  TGI: > 100 µM
TK-10 renal
  TGI: > 100 µM
U251 CNS
  TGI: > 100 µM
UACC-257 melanoma
  TGI: > 100 µM
UACC-62 melanoma
  TGI: > 100 µM
UO-31 renal
  TGI: > 100 µM
XF 498 CNS
  TGI: > 100 µM
